The source of these data is US6706747B2, “Conformationally rigid bicyclic and adamantane derivatives useful as α2-adrenergic blocking agents” (Allergan, Inc., priority 1994, dated 2004).

Read-outs that look alike come from different tables or passages of the source.

The target in test [1] is α1. Briefly: Radioligand binding, [3H]prazosin, human cerebral cortex (HCC) membranes. The following applies: 22° C., 30 minutes. The procedure: Tissue preparation: Membrane suspensions were prepared from human cerebral cortex (HCC) obtained from the UCI Organ and Tissue Bank and rat kidney cortex (RKC). Briefly, tissues (1 g) were homogenized in 25 ml of iced-cold 5 mM tris, pH 7.4 with a Polytron homogenizer for 30 secs at setting# 7, and centrifuged for. 10-12 minutes at 300×g at 4° C. The supernatant was filtered: through 2 layers of gauze and diluted 1:2 with 50 mM Tris-HCI buffer, pH 7.4, then centrifuged at 49,000×g for 20 minutes. The pellet fraction was washed 3 times (resuspended in Tris-HCl buffer and centrifuged for 20 minutes at 49,000×g). The pellet was then stored at −80° C. until the binding assay.
(§1) Binding studies: The radioligands [^3H]rauwolscine (specific activity 80 Ci/mmol) and [^3H]prazosin (specific activity 76 Ci/mmol) were obtained from New England Nuclear, Boston, Mass. Frozen membrane pellet was resuspended in 25 mM glycine/glycine, pH 7.4 and incubated with radioligand under the following conditions: CHO—C10, CHO—RNG, HT-29-[^3H]rauwolscine, 22° C., 30 minutes; RKC-[^3H]rauwolscine, 0° C., 120 minutes; and, HCC-[^3H]prazosin, 22° C., 30 minutes in a final volume of 500 μl. At the end of the incubation period, the samples were filtered through glass fiber filters (Whatman GF/B) in a 96 well cell harvester and rapidly washed four times with 4 ml of ice-cold 50 mM, Tris-HCl buffer. The filters were then oven dried and transferred to scintillation vials containing 5 ml of Beckman's Ready Protein® scintillation cocktail for counting. […] Protein concentrations were determined with a protein assay kit from Bio Rad. Binding isotherms, equilibrium dissociation and affinity constants were analyzed and determined by the non-linear least squares curve fitting programs AccuFit Competition/Saturation by Beckman.
(§2) Frozen membrane pellet was resuspended either 50 mM tris, 2 mM EGTA, 1 mM MgCl2, pH7.5 (RbKC, RbICB-[^3H]brimonidine); 50 mM tris, 0.5 mM EDTA, 5 mM NaCl, pH 7.7 (RbICB-[^3H]rauwolscine); 25 mM glycine/glycine, pH 7.4 (RtKC, CHO—C10, CH—RNG, HT-29, HCC) or 50 mM tris, 0.1 mM MnCl2, pH7.7 (RtCC). Membrane protein homogenate (75-200 μg) was incubated with radioligand under the following conditions: RbKC and RbICB-[^3H]rauwolscine, 22° C., 45 minutes; RtCC and RbICB-[^3H]brimondine, 22° C., 90 minutes; CHO—C10, CHO—RNG and HT-29-[^3H]rauwolscine, 22° C., 30 minutes; HCC—[^3H]prazosin, 22° C., 30 minutes; and, in a final volume of 250 or 500 μl. At the end of the incubation period, the samples were filtered through glass fiber filters (Whatman GF/B) in a 24 or 96 well cell harvester and rapidly washed four times with 4 mls of iced-cold 50 mM Tris-HCl buffer. The filters were then oven dried and transferred to scintillation vials containing 10 mls of, Beckman's Ready Protein® scintillation cocktail for counting. […] Protein concentrations were determined with a protein assay kit from Bio Rad. Binding isotherms, equilibrium dissociation and affinity constants were analyzed and determined by the non-linear least squares curve fitting programs EBDA (BioSoft) or AccuFit Competition/Saturation by Beckman.
The radioligands [^3H]rauwolscine (specific activity 80 Ci/mmol) and [^3H]prazosin (specific activity 76 Ci/mmol) were obtained from New England Nuclear, Boston, Mass. Frozen membrane pellet was resuspended in 25 mM glycine/glycine, pH 7.4 and incubated with radioligand under the following conditions: CHO—C10, CHO—RNG-[^3H]rauwolscine, 22° C., 30 minutes; and, HCC—[^3H]prazosin, 22° C., 30 minutes in a final volume of 500 ul.

Test [2] has as its target T1, rat α2B adrenoceptor (CHO-RNG) (Rattus norvegicus, UniProt P19328).
T1 construct: expressed in transfected cells; host or cells: CHO (CHO-RNG)
T1 sequence (P19328 1-453): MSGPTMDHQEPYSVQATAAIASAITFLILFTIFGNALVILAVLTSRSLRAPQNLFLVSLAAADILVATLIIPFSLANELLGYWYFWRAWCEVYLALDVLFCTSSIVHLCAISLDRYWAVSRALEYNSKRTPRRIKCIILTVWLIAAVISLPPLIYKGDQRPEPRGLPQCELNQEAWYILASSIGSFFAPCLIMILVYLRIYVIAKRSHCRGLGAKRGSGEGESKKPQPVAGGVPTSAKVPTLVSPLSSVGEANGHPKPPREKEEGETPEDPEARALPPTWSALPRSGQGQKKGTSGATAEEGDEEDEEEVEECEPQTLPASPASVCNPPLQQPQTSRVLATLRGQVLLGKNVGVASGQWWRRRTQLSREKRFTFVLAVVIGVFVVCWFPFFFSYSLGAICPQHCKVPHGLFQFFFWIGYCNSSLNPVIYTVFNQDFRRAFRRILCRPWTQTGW
As to the kind of experiment: Radioligand binding, [3H]rauwolscine, CHO-RNG cell membranes. The following applies: 22° C., 30 minutes. The protocol: (§3) Cell preparation: HT-29 and chinese hamster ovary (CHO) cells expressing the human α2A (CHO—C10) receptor and CHO cells (CHO—RNG) expressing the rat α2B adrenoceptor were grown to near confluency in Dulbecco's modified Eagle's medium supplemented with 10% fetal bovine serum using standard cell culture methods. Cells were harvested by scraping and placed into cold buffer of the following composition: 50 mM Tris-HCl, 5 mM EDTA, pH 7.4). Cells were then homogenized with a Polytron homogenizer for 2×10 secs at setting # 7, arid centrifuged for 20 minutes at 49,000×g. The pellet fraction was washed (resuspended in Tris-HCl, pH 8 buffer and centrifuged for 15-20 minutes at 49,000×g) 2 times and stored at −100° C. until binding assay.
as §1, §2
(§4) Cell preparation: Chinese hamster ovary (CHO) cells expressing the human α2A (CHO—C10) and the rat α2B (CHO—RNG) adrenoceptors were grown to near confluency in Dulbecco's modified Eagle's medium supplemented with 10% fetal bovine serum using standard cell culture methods. Cells were harvested by scraping and placed into cold buffer of the following composition: 50 mM Tris-HCl, 5 mM EDTA, pH 7.4). Cells were then homogenized with a Polytron homogenizer for 2×10 secs at setting #7, and centrifuged for 20 minutes at 49,000×g.

Test [3] deals with T2, human α2A (CHO-C10) receptor (Homo sapiens, UniProt P08913).
T2 construct: expressed in transfected cells; host or cells: CHO (CHO-C10)
T2 sequence (P08913 1-465): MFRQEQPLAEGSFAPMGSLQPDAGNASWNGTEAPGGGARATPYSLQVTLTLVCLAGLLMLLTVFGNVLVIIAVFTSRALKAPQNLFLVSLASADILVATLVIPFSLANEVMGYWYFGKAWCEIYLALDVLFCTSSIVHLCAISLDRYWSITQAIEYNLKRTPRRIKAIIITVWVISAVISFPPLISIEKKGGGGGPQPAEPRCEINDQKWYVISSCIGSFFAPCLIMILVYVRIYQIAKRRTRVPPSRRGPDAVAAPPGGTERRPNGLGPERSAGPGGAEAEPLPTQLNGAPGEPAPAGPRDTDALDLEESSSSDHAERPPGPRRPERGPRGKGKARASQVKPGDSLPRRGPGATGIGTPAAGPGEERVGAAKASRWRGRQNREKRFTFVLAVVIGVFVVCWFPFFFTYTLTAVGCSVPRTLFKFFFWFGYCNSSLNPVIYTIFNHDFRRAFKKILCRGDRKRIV
As to the kind of experiment: Radioligand binding, [3H]rauwolscine, CHO-C10 cell membranes. Particulars: CHO-C10, 22° C., 30 minutes. The procedure:
as §3, §1, §2, §4

Where [4] appears, read: read-out: Ki (nM) α2B (CHO-RNG).
The mark [5] stands for this setting: read-out: Ki (nM) α2A (CHO-C10).

As a reminder, the Ki is a measure of affinity in units of concentration, obtained from inhibition or displacement. Regarding `c1ccc(CCNC2=NCCO2)cc1`, the Ki in test [1] is 11100 nM; in test [2] (setting [4]), 4170 nM; in test [3] (setting [5]), 1750 nM.

For the compound `c1ccc(C2C3CCC(C3)C2NC2=NCCN2)cc1` (centres unmarked), the results for the Ki in test [2] (Ki (nM) α2B (CHO-RNG)) and in test [3] (Ki (nM) α2A (CHO-C10)) were 72 nM and 14.3 nM, respectively.

Regarding `NC1C2CCC(C2)C1c1ccccc1` (centres unmarked), the figures for the Ki in test [1], in test [2] (setting [4]) and in test [3] (setting [5]) were 11000 nM, 6100 nM and 6570 nM, respectively.

As to `c1cc2c(cc1C1C3CCC(C3)C1NC1=NCCO1)OCO2` (centres unmarked), the Ki worked out at 1860 nM in test [1], 4.6 nM in test [2] (setting [4]) and 1.1 nM in test [3] (setting [5]).

`CCC1C2CCC(C2)C1NC1=NCCO1` (centres unmarked): the Ki in test [1] was determined as 24800 nM; in test [2] (setting [4]) it was 616 nM; in test [3] (setting [5]), 59 nM.

Turning to `CCC1C2CCC(C2)C1N` (centres unmarked), the Ki in test [1] is greater than 100000 nM; in test [2] (setting [4]), 57100 nM; in test [3] (setting [5]) it was 67200 nM.

As for `CC(C)C1C2CCC(C2)C1N` (centres unmarked), the Ki in test [1] is greater than 100000 nM; in test [2] (setting [4]), 20900 nM; in test [3] (setting [5]) it was 23300 nM.

As to `CCCC1CCCCC1NC1=NCCO1` (centres unmarked), the Ki in test [1] is 1600 nM; in test [2] (setting [4]), 8.3 nM; in test [3] (setting [5]) it was 0.6 nM.

`C1COC(NC2CC3CCC2C3)=N1` (centres unmarked): the Ki in test [1] was greater than 10000 nM; in test [2] (setting [4]), 11.5 nM; in test [3] (setting [5]), 4.2 nM.

`CC1(C)C2CCC1(C)C(NC1=NCCO1)C2` (centres unmarked): the inhibition constant (Ki) is greater than 10000 nM in test [1], 1930 nM in test [2] (setting [4]) and 368 nM in test [3] (setting [5]).

Turning to `C1COC(NC2CC3CCC2CC3)=N1` (centres unmarked), the Ki in test [1] amounted to 32500 nM; in test [2] (setting [4]) it was 770 nM; in test [3] (setting [5]) it was 119 nM.

With `c1ccc(C2C3CCC(C3)C2NC2=NCCO2)cc1` (centres unmarked) [drawing 7], the inhibitory constant (Ki) was found to be 1860 nM in test [1], 7.8 nM in test [2] (setting [4]) and 3.1 nM in test [3] (setting [5]).

In the case of `c1ccc(C2C3CCC(C3)C2NC2=NCCO2)cc1` (centres unmarked) [drawing 10], the Ki in test [1] amounted to 73 nM; in test [2] (setting [4]), 27 nM; in test [3] (setting [5]), 1.9 nM.

Consider `CCCC1C2CCC(C2)C1NC1=NCCO1` (centres unmarked) [drawing 17], for which the inhibitory constant (Ki) in test [1] came to 8600 nM; in test [2] (setting [4]) it was 256 nM; in test [3] (setting [5]), 25 nM.

With `CCCC1C2CCC(C2)C1NC1=NCCO1` (centres unmarked) [drawing 18], the Ki in test [1] worked out at 8850 nM; in test [2] (setting [4]) it was 28.1 nM; in test [3] (setting [5]), 9.8 nM.

As for `C1COC(NC23CC4CC(CC(C4)C2)C3)=N1` [drawing 26], the figures for the Ki in test [1], in test [2] (setting [4]) and in test [3] (setting [5]) were greater than 10000 nM, 358 nM and 102 nM, respectively.

With `C1COC(NC23CC4CC(CC(C4)C2)C3)=N1` [drawing 27], the Ki in test [1] amounted to 35000 nM; in test [2] (setting [4]) it was 1840 nM; in test [3] (setting [5]) it was 352 nM.
